The values below come from US20050054629A1, “Compounds and methods of treating cell proliferative diseases” (priority 2002, published 2005).

Usually melting point stands for the temperature of the solid-liquid transition.

In data set [1] the test system is cell architecture. The experiment in a line: Cell architecture modification, phase contrast. The class given is cell-based. More on the design: key: −: no effect of the compound was observed; +: an effect of the compound was observed.
Data set [2] deals with Ras. The experiment in a line: Ras-dependant signaling pathway analysis (reporter system). The class given is cell-based. More on the design: key: −: no effect of the compound was observed; +: an effect of the compound was observed. Here is the method: (§1) The impact of the compounds on Ras and Rac signaling pathways was analysed with two reporter systems described by Imler (Nature 1988) and Lin (Science, 1995) respectively on one hand, and by a colony formation assay in the presence of constitutively activated Ras (RasV12) and Rac (RacV12) on the other hand. For this latter experiment, fifty percent confluent NIH3T3 cells in a 10 cm diameter petri dish were transfected with 0.5 μg pSV2-RasV12 or 0.5 μg pEXV RacV12 plasmids plus 100 ng of pSV2-neomycin plasmid using Lipofectamine-Plus reagent (Invitrogen) according to the manufacturer's instructions. Forty-eight hours later, cells were trypsinised, splitted to ⅓, and incubated in the presence of complete medium supplemented with 400 μg/ml geneticin (Invitrogen) and different doses of compound (1, 10, 17.5, 25 and 50 μM) until emerging resistant clones appear (2-3 weeks). The medium was renewed every 3 days. Colonies with a minimum of 50 cells were counted after staining with Fuschin 2%.

Data set [3] concerns NIH3T3 cells. The experiment in a line: Colony formation assay with constitutively activated Ras (RasV12) and Rac (RacV12). More on the design: key to Colony formation: −: no effect of the compound was observed; +: an effect of the compound was observed. The class given is cell-based, mouse. Here is the method: as §1
For data set [4], the system named is NIH3T3. In words: Cytoskeleton analysis, actin staining (FITC-phalloidin). The class given is cell-based, mouse. Here is the method: Since major rearrangements of cytoskeleton are observed in tumor cells and since the small GTPases are known to regulate these events, analysis of actin cytoskeleton was performed. Subconfluent cells seeded onto coverslips were treated with different concentration of compound (1, 10, 17.5, 25 and 50 μM) or vehicle for 24 h, before being fixed in 4% formaldehyde for 15 min., permeabilized in 0.2% Triton X100 for 5 minutes and incubated in PowerBlock (Biogenex) for 10 min. Actin filaments were stained with 0.5 μg/ml fluorescein isothiocyanate (FITC)-labelled phalloidin for 1 hour. Analysis was performed using an inverted fluorescent microscope.

Data set [5] has as its system HCT116 colon adenocarcinoma. The experiment in a line: Cytotoxicity assay (MTT), 6 days. To be noted: Homo sapiens, HCT-116, 144 h, 6 days of treatment, read-out: Toxicity 6d (IC 50, μM) HCT116. Type of data set: cell-based, human. The text has this:
(§2) Four human tumoral cell lines, namely HCT116 colon adenocarcinoma, H460 lung carcinoma, MCF-7 and MDA-MB-231 breast carcinoma cell lines, and three immortalized but non tumorigenic cell lines, namely NIH3T3 mouse fibroblasts and human breast-derived MCF10-A and MRC-5 were purchased at ATCC and cultured according to their recommendations. In order to determine the cytotoxicity associated with one compound, a microculture tetrazolium assay (MTT), as described by Carmichael et al (Cancer Res, 1996) with modifications, was used. Briefly, 5.10^3 or 2.10^4 cells were seeded per well in 24-well plates 24 hours before drug addition. Cells were treated with 0, 1, 10, 17.5, 25 and 50 μM of compound solubilized in DMSO, adjusting the total volume of DMSO (Dimethylsulfoxide) to 1%. Forty-eight hours or 6 days after treatment, the medium was replaced by PBS containing 0.5 mg/ml MTT (Sigma) and cells were incubated for 3 more hours at 37° C. before solubilization of formazan crystals in 100% DMSO. Absorbance was measured using a spectrophotometer at a wavelength of 550 nm. Cell surviving fraction and 50% inhibitory concentration were calculated. All assays were performed in triplicate.

The test system of data set [6] is H460 lung carcinoma. The experiment in a line: Cytotoxicity assay (MTT), 6 days. The class given is cell-based. To be noted: Homo sapiens, NCI-H460, 144 h, 6 days of treatment, read-out: Toxicity 6d (IC 50, μM) H460.
Description: as §2

For data set [7], the system named is MCF-7 breast carcinoma. In words: Cytotoxicity assay (MTT), 6 days. The class given is cell-based. Conditions: Homo sapiens, MCF7, 144 h, 6 days of treatment, read-out: Toxicity 6d (IC 50, μM) MCF7.
Description: as §2

The test system of data set [8] is MDA-MB-231 breast carcinoma. In words: Cytotoxicity assay (MTT), 6 days. The class given is cell-based. Conditions: Homo sapiens, MDA-MB-231, 144 h, 6 days of treatment, read-out: Toxicity 6d (IC 50, μM) MDA231.
Description: as §2

Data set [9] deals with HCT116 cells. The experiment in a line: Anchorage-independent growth assay (soft agar / Matrigel). Type of data set: cell-based, human. To be noted: Homo sapiens, HCT-116, 168 h; HCT116, 3-dimensional growth, 1 week. Here is the method: In order to evaluate the effect of the compounds on the capacity of tumor cells to grow without anchorage, HCT116 cells were seeded either in agar or in Matrigel (BD, France). For 3D growth experiment in soft agar in 24-well plates, 5.10^3 HCT116 cells were resuspended in 250 μl of complete medium containing 0.3% soft-agar (Difco) and different concentrations of compound (0.1, 1, 10, 17.5, 25 and 50 μM). Cells were then poured on a solidified layer of medium containing 0.5% of soft-agar plus the compound at the same concentration than in the upper layer. Cells were incubated at 37° C. for 1 week before they were analysed using a phase contrast microscope (Nikon). For 3D growth experiment in Matrigel, 10^4 HCT116 cells were resuspended in 300 μl of complete medium containing 5 mg/ml Matrigel (BD, France) and different concentrations of compound (0.1, 1, 10, 17.5, 25 and 50 μM), and poured in 24-well plates. After solidification at 37° C. for 15 min., complete medium containing the compound was added to each well. Cells were incubated for 1 week before they were collected using Matrisperse (BD, France) according to the manufacturer's instructions. After recovery, alive cells were counted with trypan blue exclusion.

The subject of data set [10] is NIH3T3 mouse fibroblasts. In words: Cytotoxicity assay (MTT), 6 days. The class given is cell-based. To be noted: NIH3T3, 144 h, 6 days of treatment, read-out: Toxicity 6d (IC 50, μM) NIH3T3.
Description: as §2

The subject of data set [11] is MDA-MB-231 cells. The experiment in a line: Matrigel invasion assay (Boyden chamber). Type of data set: cell-based, human. Conditions: MDA-MB-231, Boyden chamber, matrigel. On the procedure: Chemoinvasion assay was performed in Boyden chamber as described by Albini et al (Cancer Res, 1987) with some modifications. Polycarbonate membranes with 8 μm pores were coated with matrigel (125 μg/cm^2) at room temperature for 48 h. Two hours before experiments, the matrix was […] with serum-free medium containing 0.1% BSA.
One day after seeding, 10^6 MDA-MB-231 cells were treated overnight with different concentrations of compounds (1, 10, 17.5, 25 and 50 μM). Cells were collected with Versene (Invitrogen), counted with trypan blue exclusion, rinsed twice in serum-free medium containing 0.1% BSA and resuspended in serum-free medium containing 0.1% BSA plus the appropriate concentration of compound. 10^5 treated cells were placed in the upper chamber. Medium containing 10% of FBS plus the appropriate concentration of compound was placed in the lower chamber as a chemoattractant. The Boyden chamber was incubated 6 hours at 37° C. before the cells were fixed and stained with Diff-Quick (Dade-Berhing). Cells on the upper part of the filters were removed using a cotton swab. Cells on the underside of the filters were visualised and counted under light microscope.

Data set [12] deals with HCT116. The experiment in a line: Cell viability assay (MTT), Example 32. Type of data set: cell-based, human. Conditions: for IC50: Homo sapiens, HCT-116, 144 h, day 6, 10% FBS. Here is the method:
FIG. 7: Antiproliferative effect of compounds on HCT116 (top) and MDA-MB-231 (bottom) cell lines measured by MTT viability assay. 2.5 10^3 (HCT116) or 7.5 10^3 (MDA-MB-231) cells were seeded in 48-well plates in growth medium containing 10% FBS, with or without various concentrations of test compounds. Cell cultures were fed every 3 days with the appropriate media. Cell viability was determined on day 6. Data were analyzed and IC50s were calculated from the dose-response curves using GraphPad Prism.
In order to determine one compound effect on cell viability, microculture tetrazolium assay (MTT) was performed as described by Carmichael et al., (1996) with modifications. Four human tumoral cell lines, namely HCT116 colon adenocarcinoma, H460 lung carcinoma, MCF-7 and MDA-MB-231 breast carcinoma cell lines, and 3 immortalized but non tumorigenic cell lines, namely NIH3T3 mouse fibroblasts and human breast-derived MCF10-A and human lung-derived MRC-5 were purchased at ATCC and cultured according to their recommendations. Briefly, 2.5 10^3 to 2 10^4 cells per well were seeded in 48-well plates 24 hours before drug addition. Cells were treated with 0 to 200 μM (11 concentrations) of compound solubilized in DMSO, adjusting the final concentration of DMSO to 1% in the well. Six days after treatment, the medium was replaced by PBS containing 0.5 mg/ml MTT (Sigma) and cells were incubated for 1-3 hours at 37° C. before solubilization of formazan crystals in 100% DMSO. Absorbance was measured using a spectrophotometer at a wavelength of 550 nm. Data was analyzed using the GraphPad Prism software (GraphPad Software, Inc., San Diego, USA), and IC50 (dose leading to 50% cell death) was calculated from the dose-response curves.

Consider `O=c1cc(CO)occ1OCCCCCOc1ccc(Cl)cc1` [EH15500, 5-[5-(4-Chlorophenyloxy)pentyloxy]-2-(hydroxymethyl)-4H-pyran-4-one], for which the melting point was 95 to 97 °C. Moreover, the “Cell architecture modification phase contrast” value in data set [1] is on record as “+”. Moreover, the “Small GTPases activities Ras” value in data set [2] is recorded as “−”. In addition, the Colony formation entry in [3] was “−”. Further, the “general morphology of NIH3T3 cells, as detected by β-actin staining” value in data set [4] is “affected”. Moreover, in [4] (24 h treatment), the “Cell architecture modification actin staining (R: ruffles; FC: focal complexes) NIH3T3” value was “cell destructuration”. In addition, the IC50 in [5] amounted to 50 µM. Further, the IC50 in data set [6] worked out at 35 µM. The IC50 in data set [7] is above 50 µM. The IC50 in [8] worked out at 15 µM.

For the compound `C/C=C/c1oc(CO)cc(=O)c1OCCCCCOc1cccc(Cl)c1` [EH16201, (E)-3-[5-(3-Chlorophenyloxy)pentyloxy]-6-(hydroxymethyl)-2-(propen-1-yl)-4H-pyran-4-one], the IC50 is 12.5 µM in data set [9]; 50 µM in [5]; 20 µM in data set [6]; 25 µM in data set [10]; 25 µM in [7]; above 50 µM in [8].

With `CCOc1ccccc1OCCCCCOc1coc(CO)cc1=O` [EH18601, 5-[5-(2-Ethyloxyphenyloxy)pentyloxy]-2-(hydroxymethyl)-4H-pyran-4-one], the “Cell architecture modification phase contrast” value in [1] is reported as “−”. Besides, the IC50 is 50 µM in data set [5]; 25 µM in [6]; above 50 µM in data set [10]; 15 µM in data set [7]; above 50 µM in [8]. Moreover, the Invasion result in [11] is on record as “No effect”.

For `C/C=C/c1oc(C(=O)O)cc(=O)c1OCCCCCOc1ccc(Cl)c(Cl)c1CCC` [EH22501, (E)-3-[5-(3,4-Dichloro-2-propylphenyloxy)pentyloxy]-2-(propen-1-yl)-4-oxo-4H-pyran-6-carboxylic acid], the IC50 in data set [5] is above 50 µM; in [6], above 50 µM; in [10], above 50 µM; in [7], above 50 µM; in data set [8] it was 50 µM.

Take `C/C=C/c1oc(CO)cc(=O)c1OCCCCCOc1ccc(Cl)cc1` [EH26101, (E)-3-[5-(4-Chlorophenyloxy)pentyloxy]-6-(hydroxymethyl)-2(propen-1-yl)-4H-pyran-4-one]: the IC50 in data set [9] was 50 µM; in data set [5] it was above 50 µM; in [6], 35 µM; in data set [10], 1 to 5 µM; in data set [7], above 50 µM; in data set [8] it was 40 to 45 µM.

`C/C=C/c1oc(CO)cc(=O)c1OCCCCCOc1ccc(Cl)c(Cl)c1` [EH30101]: the IC50 in data set [9] is 7.5 µM; in data set [5], 50 µM; in [6] it was 35 µM; in data set [10], 0.1 to 0.5 µM; in [7] it was 45 µM; in data set [8], 30 to 35 µM.

As to `O=c1cc(CO)occ1OCCCCCn1cnc2c(Cl)ncnc21` [EHT 0248, 5-[5-(6-Chloro-purin-9-yl)-pentyloxy]-2-hydroxymethyl-4H-pyran-4-one], the IC50 in data set [12] was above 100 µM.

`C/C=C/c1oc(CO)cc(=O)c1OCCCCCOc1ccc(Cl)cc1CCC` [EHT 1405, (E)-3-[5-(4-chloro-2-propyl-phenoxy)-pentyloxy]-6-hydroxymethyl-2-propenyl-4H-pyran-4-one]: the IC50 in [12] worked out at 4 µM.

For `O=C(NC1CCCCC1)OCc1cc(=O)c(OCCCCCn2ccc3ccccc32)co1` [EHT 6231, Cyclohexyl-carbamic acid 5-(5-indol-1-yl-pentyloxy)-4-oxo-4H-pyran-2-ylmethyl ester], in data set [12] (MTT, HCT116), the “IC50 fold higher as compared to compound EHT 7395” value was 2 fold.

The compound `O=c1cc(COC2CCCCO2)occ1OCCCCCn1ccc2ccc(Cl)cc21` (stereo not drawn) [EHT 8617, 5-[5-(6-Chloro-indol-1-yl)-pentyloxy]-2-(tetrahydro-pyran-2-yloxymethyl)-4H-pyran-4-one] came in with an IC50 in data set [12] of 1.5 to 4 µM.

`O=c1cc(CO)occ1OCCCCCN1CCc2ccccc21` [EHT 8650, 5-[5-(2,3-Dihydro-indol-1-yl)-pentyloxy]-2-hydroxymethyl-4H-pyran-4-one]: the IC50 in data set [12] was above 100 µM.
